Measurements: US6100272A, “Tetracyclic spiro compounds as 5HT1B receptor antagonists” (SmithKline Beecham p.l.c., priority 1996, dated 2000)

Target: T1, 5-HT 1B receptors (Homo sapiens, UniProt P28222)
T1 construct: expressed in transfected cells; host or cells: CHO cells (homogenised in Tris buffer)
Assay: 5-HT 1B and 5-HT 1D receptor binding ([3H]-5-HT displacement, CHO cell homogenates)
Conditions: CHO cells expressing receptor, [3H]-5-HT 4 nM, Tris Mg HCl buffer pH 7.7, 37° C., 45 minutes, pKi calculated from IC50; for Ki: read-out: pKi values at 5-HT 1D beta receptors (converted)
Experimental: CHO cells expressing 5-HT 1D receptors (0.563×10^8 cells/ml) were homogenised in Tris buffer and stored in 1 ml aliquots. CHO cells expressing 5-HT 1B receptors (4×10^7 cells/ml) were homogenised in Tris buffer and stored in 1.5 ml aliquots. 0.4 ml of a cell suspension was incubated with [^3 H-5-HT (4 nM) in Tris Mg HCl buffer (pH 7.7) and test drug, at 37° C. for 45 minutes. Each test drug was tested at 10 concentrations (0.01 mM to 0.3 nM final concentration), with non-specific binding defined using 0.01 mM 5-HT. The total assay volume was 0.5 ml. Incubation was stopped by rapid filtration using a Packard Filtermate (filters pre-soaked in 0.3% polyethylenimine) and radioactivity measured by Topcount scintillation counting. pKi values were calculated from the IC50 generated by an iterative least squares curve fitting programme.

T1 sequence (P28222 whole entry): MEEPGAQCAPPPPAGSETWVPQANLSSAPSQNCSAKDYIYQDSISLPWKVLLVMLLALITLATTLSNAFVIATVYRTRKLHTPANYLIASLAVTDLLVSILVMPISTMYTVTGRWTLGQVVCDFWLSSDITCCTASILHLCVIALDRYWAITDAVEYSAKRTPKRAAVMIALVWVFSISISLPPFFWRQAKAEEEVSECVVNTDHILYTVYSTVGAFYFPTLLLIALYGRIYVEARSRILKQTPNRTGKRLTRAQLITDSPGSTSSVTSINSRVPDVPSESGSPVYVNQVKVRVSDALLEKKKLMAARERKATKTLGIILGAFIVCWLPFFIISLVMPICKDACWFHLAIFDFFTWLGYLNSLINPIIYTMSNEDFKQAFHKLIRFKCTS

Compound	Ki	pKi values at 5-HT 1D beta receptors
Cc1cc(N2CCOC2=O)ccc1-c1ccc(C(=O)N2CCc3cc4c(cc32)C2(CCN(C)CC2)CO4)cc1 [Example 3, 5-[4'-(4,5-Dihydro-2-oxooxazol-3-yl)-2'-methylbiphenyl-4-carbonyl]-1'-methyl-2,3,6,7-tetrahydrospiro[furo[2,3-f]indole-3,4'-piperidine]]	< 10 nM	–
CN1CCC2(CC1)COc1cc3c(cc12)N(C(=O)c1ccc(-c2ccc(N4CCCC4=O)cc2Cl)cc1)CC3 [Example 14]	< 10 nM	–
Cc1cc(N2CCCC2=O)ccc1-c1ccc(C(=O)C2=C3CC4=C(C=C3N=C2)OCC42CCN(C)CC2)cc1 [Example 33, 2,3-Dihydro-1'-methyl-5-[2'-methyl-4'-(2-oxopyrrolidin-1-yl)biphenyl-4-carbonyl]spiro[furo[3,2-f]indole3,4'-piperidine]]	< 10 nM	–
C=CCN1CCC2(CC1)COc1cc3c(cc12)N(C(=O)c1ccc(-c2ccc(N4CCCC4=O)cc2C)cc1)CC3 [Example 24, 1'-Allyl-5-[2'-methyl-4'-(2-oxopyrrolidin-1-yl)biphenyl-4-carbonyl]-2,3,6,7-tetrahydrospiro[furo[2,3-f]indole-3,4'-piperidine]]	< 10 nM	–
CC(=O)Nc1ccc(-c2ccc(C(=O)N3CCc4cc5c(cc43)C3(CCN(C)CC3)CO5)cc2)c(C)c1 [Example 4, 5-(4'-Acetamido-2'-methylbiphenyl-4-carbonyl)-1'-methyl-2,3,6,7-tetrahydrospiro[furo[2,3-f]indole-3,4'-piperidine]]	< 10 nM	–
Cc1cc(N2CCCC2=O)ccc1-c1ccc(C(=O)N2CCc3cc4c(cc32)C2(CO4)C[C@@H](C)N(C)[C@@H](C)C2)cc1 (stereo partly drawn) [Example 28, cis-2',6'-dimethyl isomer of 5-[2'-Methyl-4'-(2-oxopyrrolidin-1-yl)biphenyl-4-carbonyl]-2,3,6,7-tetrahydro-1',2',6'-trimethylspiro[furo[2,3-f]indole-3,4'-piperidine]]	–	> 8.0
Cc1cc(N2CCNC2=O)ccc1-c1ccc(C(=O)N2CCc3cc4c(cc32)C2(CCN(C)CC2)CO4)cc1 [Example 7]	< 10 nM	–
Cc1cc(N2CCN(C)C2=O)ccc1-c1ccc(C(=O)N2CCc3cc4c(cc32)C2(CCN(C)CC2)CO4)cc1 [Example 8]	< 10 nM	–
Cc1cc(N2CCC(C)C2=O)ccc1-c1ccc(C(=O)N2CCc3cc4c(cc32)C2(CCN(C)CC2)CO4)cc1 (stereo not drawn) [Example 9]	< 10 nM	–
